This note sets out measurements from article PMC11026403 (Communications Biology, 2024).

The experiment deals with A/Denmark/524/2009 (H1N1)pdm09 NA-H274 (Influenza A virus, UniProt C3W5S3). Type of experiment: biochemical.

Structures are written as SMILES.

As usually defined, the IC50 is the concentration that gives 50% inhibition. The compound `CCC(CC)[C@H](NC(C)=O)[C@@H]1[C@H](O)[C@@H](C(=O)O)C[C@H]1N=C(N)N` [peramivir] displayed a concentration for half-maximal inhibition (IC50) of 0.1 nM. This lies in the sub-nanomolar range.
